Measurements published in PMC9412414, “A Study on Repositioning Nalidixic Acid via Lanthanide Complexation: Synthesis, Characterization, Cytotoxicity and DNA/Protein Binding Studies” (Pharmaceuticals, 2022).

Tests used:
[1] = system: LoVo (human colorectal adenocarcinoma) cell line; test: MTS cytotoxicity assay, LoVo cell line; assay type: cell-based; settings: 48 h of incubation
Experimental: (§1) LoVo, MDA-MB-231 and HUVEC human cell lines were purchased from American Type Culture Collection (ATCC). Cells were routinely maintained in culture either in culture flasks or seeded in plates, using Dulbecco’s modified Eagle medium/nutrient mixture F-12 (DMEM:F12) medium supplemented with […], 10% fetal calf serum (Sigma Aldrich, St. Louis, MO, USA), 100 units/mL penicillin, 100 μg/mL streptomycin and incubated at 37 °C in 5% CO2 humidified atmosphere.
(§2) Cytotoxicity studies were performed in 96-well microtiter plates with flat bottoms (Falcon, Teterboro, NJ, USA) using the CellTiter 96 Aqueous One Solution Cell Proliferation Assay (Promega, Madison, WI, USA), an MTS-based colorimetric assay. Metabolically active cells have the ability to reduce MTS [3-(4,5-dimethylthiazol-2-yl)-5-(3-carboxymethoxyphenyl)-2-(4-sulfophenyl)-2H-tetrazolium, inner salt], a yellow tetrazolium salt, to a colored formazan that is soluble in the culture medium. Briefly, 15 × 10^3 cells per well were cultured in 100 µL culture medium. After 24 h, adherent cells were treated with different concentrations of the studied compounds, as well as adriamycin (Adr) and cisplatin (Cis-Pt), used as positive controls for 24 h and 48 h, respectively. Each well was then filled with 20 µL of reagent containing MTS and PES (phenazine ethosulfate, a cationic dye with excellent chemical stability that binds to MTS and produces a stable solution). The resulting formazan was determined using a Tecan GENios Spectrophotometer (Tecan US, Durham, NC, USA) by measuring the absorbance at λ = 492 nm after incubation for 4 h at 37 °C with moderate agitation every 15 min. The cytotoxicity tests were performed in triplicate, with results reported as mean values with standard deviations (SD). The cytotoxicity of DMSO was also investigated under the same conditions, and no harmful effect was found at doses less than 1%.
(§3) Data were expressed as cell viability by comparing with untreated cells considered 100% viable, using the following formula:(1) Cell viability (%)=absorbance of treated cells−absorbance of culture medium/absorbance of untreated cells−absorbance of culture medium

[2] = system: HUVEC (human umbilical vein endothelial cells); test: MTS cytotoxicity assay, HUVEC normal cell line; assay type: cell-based; settings: 24 h of incubation
Experimental: as §1, §2, §3

EB–DNA system (CT-DNA) = test: Competitive binding assay with ethidium bromide (EB) through fluorescence spectroscopy; design: species or system calf; settings: EB 2 µM, CT-DNA 10 µM, compound 0–40 µM
Experimental: The fluorescence spectra were recorded using 1.6 mL samples containing 10 µM CT-DNA, 2 µM EB, and increasing amounts (0–40 µM with an increment of 5 µM) of tested compounds; the samples were prepared by keeping the components in contact for 10 min at room temperature, under continuous stirring and in the dark. The excitation wavelength was 500 nm, and the spectra were recorded between the wavelengths of 520 and 800 nm. A Jasco FP 6500 fluorometer and quartz cells with a 1 cm route length were employed. The classical Stern–Volmer equation (Equation (3)) was used to interpret the obtained data:(3) F0/F=1+KSV·[Q] F0 and F are the fluorescence intensities of the EB–DNA samples in the absence and presence of the tested compounds, respectively; KSV is the Stern–Volmer constant, which was computed as the slope from the plot of F0/F vs. [Q], where [Q] is the chemical concentration.
The binding ratio was plotted against the logarithm of the concentration in comparison with a control sample exposed solely to DMSO. (4) y=A1+(A2−A1)×x^n/K50^n+x^n
For fitting data points, the modified Hill function with offset (Origin®) was used: where y represents the binding ratio (F/F0), x represents the concentration, A1 represents the minimum of y values, A2 represents the maximum of y values, K50 represents the concentration corresponding to 50% binding or the half maximum binding constant, and n represents the Hill coefficient.

apotransferrin (apo-Tf) = target: T1, apotransferrin (apo-Tf) (Homo sapiens, UniProt P02787); test: Apo-Tf fluorescence quenching binding study; settings: for Kd: read-out: Kd (dissociation constant), Apo-Tf; for fa (fraction of fluorophore accessible to the quencher), Apo-Tf / Ksv* (Stern–Volmer quenching constant), Apo-Tf: compound 0–8 µM; for Ksv* (Stern–Volmer quenching constant), Apo-Tf: Tris-HCl pH 7.4, 298 K; for Kq (bimolecular quenching constant), Apo-Tf: from Ksv* with τ0 = 10^−8 s
T1 construct: purchased Sigma-Aldrich Chemical Co. (Schnelldorf, Germany)
T1 sequence (P02787 20-698): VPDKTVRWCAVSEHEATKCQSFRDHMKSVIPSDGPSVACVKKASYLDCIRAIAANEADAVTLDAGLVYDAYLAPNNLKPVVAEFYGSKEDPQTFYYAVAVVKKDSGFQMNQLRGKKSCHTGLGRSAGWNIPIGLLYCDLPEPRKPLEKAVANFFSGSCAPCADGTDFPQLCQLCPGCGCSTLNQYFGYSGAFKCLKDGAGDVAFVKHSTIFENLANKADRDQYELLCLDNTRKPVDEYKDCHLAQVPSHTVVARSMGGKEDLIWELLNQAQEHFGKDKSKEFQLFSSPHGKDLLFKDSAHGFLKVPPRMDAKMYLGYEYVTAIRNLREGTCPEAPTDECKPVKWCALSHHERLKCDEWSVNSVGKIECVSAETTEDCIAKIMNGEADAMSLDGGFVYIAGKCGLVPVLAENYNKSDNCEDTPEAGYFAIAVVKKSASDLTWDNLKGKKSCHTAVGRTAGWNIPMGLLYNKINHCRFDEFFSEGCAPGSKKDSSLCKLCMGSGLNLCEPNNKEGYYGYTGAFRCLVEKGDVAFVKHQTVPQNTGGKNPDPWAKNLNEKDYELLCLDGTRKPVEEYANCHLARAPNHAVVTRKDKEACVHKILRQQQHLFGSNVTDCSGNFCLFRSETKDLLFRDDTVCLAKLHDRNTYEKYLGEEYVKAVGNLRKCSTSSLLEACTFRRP
Experimental: (§4) Using a Jasco FP 6500 spectrofluorometer (Jasco, Tokyo, Japan) and quartz cells with a 1 cm path length, the fluorescence spectra of HSA and apo-Tf were recorded in the presence and absence of the examined substances. The 2.5 mL samples containing 2.5 µM HSA or 1 µM apo-Tf were titrated by adding 5 µL of the tested substance at a time, a volume that corresponded to a 1 µM increase in concentration. The concentration range used for these experiments varied from 0 to 8 µM. The relevant spectra were collected in the emission domains of 300–500 nm (HSA) and 305–500 nm (apo-Tf) after 3 min of continuous stirring at room temperature, using excitation wavelengths of 280 nm (HSA) and 295 nm (apo-Tf).
(§5) Experiments were conducted in a pH = 7.4 Tris-HCl buffer (5 mM Tris-HCl/50 mM NaCl for HSA and 5 mM Tris-HCl/50 mM NaCl/25 mM NaHCO3 for apo-Tf).
(§6) The following modified Stern–Volmer equation has been used to calculate the Stern–Volmer constant, which will be denoted as KSV* in order to differentiate it from the Stern–Volmer constant calculated for the DNA binding experiments:(5) F0/F0−F=1/faKsv*[Q]+1/fa where F0 and F are the fluorescence intensities in the absence and presence of the tested compounds, fa is the fraction of fluorophore accessible to the quencher (the tested compounds), [Q] is the quencher concentration, and KSV* (M^−1) is the Stern–Volmer constant; the plot of F0/(F0 − F) against 1/[Q] yields KSV as the slope and fa as the y intercept.
(§7) Subsequently, the bimolecular quenching rate constant was obtained by using Equation (6):(6) Ksv^*=Kqτ0
(§8) Kq (M^−1·s^−1) is the bimolecular quenching rate constant and τ0 is the fluorophore’s lifespan in the absence of the investigated chemicals (10^−8 s). The value of Kq can be used to assess whether the quenching phenomena have an underlying static or dynamic mechanism.
(§9) Using the following equation, the affinity constant (Ka) and the number of binding sites (n) have been calculated: (7) lgF0−F/F=lgKa+nlg[Q]
(§10) The binding affinity, Kd, can be calculated using the quadratic function below:(8) F0−F/F0−Fb=[P]t+[Q]+Kd−([P]t+[Q]+Kd)^2−4[P]t[Q]/2[P]t where F and F0 are the fluorescence intensities of the protein in the presence and absence of the quencher, respectively, Fb is the fluorescence of a fully bound protein–quencher, [P]t is the total concentration of the protein, and [Q] is the concentration of the added quencher. Each binding isotherm was plotted against the total quencher concentration in solution as a function of bound to free protein (F/F0).
(§11) The isotherms were then fitted using the nonlinear regression function below:(9) F/F0= F1+(F2−F1)Kdn/Kdn+[Q]^n where n represents the Hill coefficient, F1 and F2 are the horizontal and vertical asymptotes, respectively. The Kd in Equation (9) is derived from the quadratic binding function (Equation (8)).
(§12) Data were collected in triplicate, averaged, and expressed as mean value ± standard deviation (SD). All graph fitting models were defined and built using OriginPro® 2018.

[3] = target: T2, human serum albumin (HSA) (Homo sapiens, UniProt P02768); test: HSA fluorescence quenching binding study; settings: for Ka (association binding constant), HSA / n1 (Number of Binding Sites), HSA / n2 (Hill Coefficient), HSA / Kd / fa (fraction of fluorophore accessible to the quencher), HSA / Ksv* (Stern–Volmer quenching constant), HSA: HSA 2.5 µM; for Ka (association binding constant), HSA / n1 (Number of Binding Sites), HSA / n2 (Hill Coefficient), HSA / Kd / fa (fraction of fluorophore accessible to the quencher), HSA / Kq (bimolecular quenching constant), HSA: 298 K; for Kd: read-out: Kd (dissociation constant), HSA; for fa (fraction of fluorophore accessible to the quencher), HSA / Ksv* (Stern–Volmer quenching constant), HSA: compound 0–8 µM; for Ksv* (Stern–Volmer quenching constant), HSA: Tris-HCl pH 7.4, 298 K; for Kq (bimolecular quenching constant), HSA: from Ksv* with τ0 = 10^−8 s
T2 construct: purchased Sigma-Aldrich Chemical Co. (Schnelldorf, Germany)
T2 sequence (P02768 25-609): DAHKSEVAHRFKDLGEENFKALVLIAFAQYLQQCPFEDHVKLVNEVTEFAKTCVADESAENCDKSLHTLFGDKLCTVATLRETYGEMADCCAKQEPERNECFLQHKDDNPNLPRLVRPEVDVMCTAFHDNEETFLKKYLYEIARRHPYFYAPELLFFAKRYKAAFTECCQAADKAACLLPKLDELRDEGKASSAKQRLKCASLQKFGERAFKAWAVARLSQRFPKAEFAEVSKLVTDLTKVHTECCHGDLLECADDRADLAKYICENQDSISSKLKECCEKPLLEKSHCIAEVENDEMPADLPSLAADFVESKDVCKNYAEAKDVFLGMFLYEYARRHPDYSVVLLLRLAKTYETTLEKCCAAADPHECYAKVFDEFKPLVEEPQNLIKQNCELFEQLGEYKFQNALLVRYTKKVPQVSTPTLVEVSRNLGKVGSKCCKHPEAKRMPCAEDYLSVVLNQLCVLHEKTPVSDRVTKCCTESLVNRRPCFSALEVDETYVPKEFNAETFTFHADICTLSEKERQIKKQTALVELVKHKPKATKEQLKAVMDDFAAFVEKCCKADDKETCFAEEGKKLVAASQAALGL
Experimental: as §4, §5, §6, §7, §8, §9, §10, §11, §12

| Compound | IC50 [1] [µM] | IC50 (μM) LoVo [1] | IC50 [2] [µM] | EB Displacement Assay K50 (half maximum binding constant) (EB–DNA system (CT-DNA)) [µM] | KSV, Stern–Volmer quenching constant (EB–DNA) (EB–DNA system (CT-DNA)) | Ka (association binding constant), Apo-Tf (apotransferrin (apo-Tf); apo-Tf 1 µM, 298 K) | n1 (Number of Binding Sites), Apo-Tf (apotransferrin (apo-Tf); apo-Tf 1 µM, 298 K) | Kd (apotransferrin (apo-Tf); apo-Tf 1 µM, 298 K) [µM] | fa (fraction of fluorophore accessible to the quencher), Apo-Tf (apotransferrin (apo-Tf); apo-Tf 1 µM, 298 K) | Ksv* (Stern–Volmer quenching constant), Apo-Tf (apotransferrin (apo-Tf); apo-Tf 1 µM) | Kq (bimolecular quenching constant), Apo-Tf (apotransferrin (apo-Tf); 298 K) [M⁻¹ s⁻¹] | Ka (association binding constant), HSA [3] | n1 (Number of Binding Sites), HSA [3] | n2 (Hill Coefficient), HSA [3] | Kd [3] [µM] | fa (fraction of fluorophore accessible to the quencher), HSA [3] | Ksv* (Stern–Volmer quenching constant), HSA [3] | Kq (bimolecular quenching constant), HSA [3] [M⁻¹ s⁻¹] | n2 (Hill Coefficient), Apo-Tf (apotransferrin (apo-Tf); apo-Tf 1 µM, 298 K) | quenching effect on apo-Tf fluorescence peak (apotransferrin (apo-Tf); apo-Tf 1 µM, compound up to 8 µM) [%] |
| --- | --- | --- | --- | --- | --- | --- | --- | --- | --- | --- | --- | --- | --- | --- | --- | --- | --- | --- | --- | --- |
| CCn1cc(C(=O)[O-])c(=O)c2ccc(C)nc21.CCn1cc(C(=O)[O-])c(=O)c2ccc(C)nc21.O.[OH-].[Tb+3] [Tb(nal)2, Tb(C12H11N2O3)2(OH)(H2O)·1.5H2O] | > 200 | not toxic | > 200 | 34.69 ± 11.18 | 9.14 ± 0.16 M^−1 (×10^3) | (0.32 ± 0.08) × 10^4 M^−1 | 0.71 ± 0.02 | 8.01 ± 4.3 | 0.65 ± 0.02 | (2.23 ± 0.15) × 10^5 M^−1 | 2.23e+13 | (11.52 ± 2.87) × 10^5 M^−1 | 1.12 ± 0.02 | 1.52 ± 0.09 | 3.99 ± 0.14 | 1.13 ± 0.02 | (1.92 ± 0.08) × 10^5 M^−1 | 1.92e+13 | – | – |
| Eu(C12H11N2O3)3(H2O)2·2.5H2O [Eu(nal)3] | 26.9 ± 5.72 | – | > 200 | 30.96 ± 10.85 | 9.62 ± 0.10 M^−1 (×10^3) | (2.25 ± 1.01) × 10^4 M^−1 | 0.84 ± 0.03 | 3.85 ± 0.29 | 0.80 ± 0.02 | (2.21 ± 0.13) × 10^5 M^−1 | 2.21e+13 | (21.59 ± 2.04) × 10^5 M^−1 | 1.13 ± 0.00 | 1.17 ± 0.27 | 2.67 ± 0.21 | 1.13 ± 0.01 | (2.89 ± 0.11) × 10^5 M^−1 | 2.89e+13 | 1.58 ± 0.23 | 48 |
